“Also recorded” adds a separate entry of the source. Where a SMILES comes first, the peptide text is derived from it. Bridges are numbered along the chain shown (N, C = ends).
How the values were obtained:
[1] = molecular target: T1, Shaker IR (Drosophila melanogaster, UniProt P08510, DEL6-46); test: Current-voltage (I-V) experiments, voltage dependence and reversibility on Shaker IR; format: cell-based, insect
T1 construct: expressed in transfected cells; host or cells: Xenopus laevis oocytes injected with cRNA
Protocol: In order to elucidate whether BcsTx-1 and -2 block the current through a physical obstruction of the Shaker IR channel pore or act as gating modifiers, current-voltage (I-V) experiments were performed. The currents were inhibited at the test potentials from −90 to 100 mV, and the inhibition was not associated with a change of the shape of the I-V relationship. The control curve and the curve in the presence of BcsTx1 (500 nM) were characterized by a V1/2 values of 20.85 ± 0.69 mV and 22.62 ± 0.73 mV, respectively. Moreover, the control curve and the curve in the presence of BcsTx2 (50 nM) were characterized by a V1/2 values of 18.49 ± 1.49 mV and 23.88 ± 1.57 mV, respectively. […] To date, type 1 sea anemone toxins have been described to act solely through a KV channel pore-blocking mechanism.
Figure 8 Functional features of BcsTx1 and BcsTx2 on KV channels. (A, B) Dose-response curves of BcsTx1 and BcsTx2 on rKV1.1, rKV1.2, hKV1.3, rKV1.6 and Shaker IR channels. The curves were obtained by plotting the percentage blocked current as a function of increasing toxin concentrations. All data are presented as the mean ± standard error (n ≥ 3). (C, D) Current-voltage relationship for Shaker IR isoform in control condition and in the presence of BcsTx1 (500 nM) and BcsTx2 (50 nM). Current traces were evoked by 10 mV depolarization steps from a holding potential of −90 mV. Open circles indicates the V1/2 in control; closed circles indicate the addition of toxins. (E, F) Percentage of currents left after application of BcsTx1 (500 nM) and BcsTx2 (50 nM) on Shaker IR channel. […] (G, H) Representative experiment of the time course of Shaker IR current inhibition with BcsTx1 (500 nM) and BcsTx2 (3000 nM) and the reversibility hereof. Control (open square); washout (open circles). […] Plots shown are a representative of at least three individual experiments.
Stage V–VI of X. laevis oocytes were harvested by partial ovariectomy under anesthesia (3-aminobenzoic acid ethyl ester methanesulfonate salt, 0.5 g/L from Sigma-Aldrich Co., Saint Louis, MO, USA). The oocytes were defolliculated for 2 h by treatment with 2 mg/mL collagenase (Sigma-Aldrich Co., Saint Louis, MO, USA) in Ca^2+ free ND96 solution (in mM: 96 NaCl; 2 KCl; 1 MgCl2; 5 HEPES adjusted pH 7.4). […]
Two-electrode voltage-clamp recordings were performed at room temperature (18–22 °C) using a Geneclamp 500 amplifier (Molecular Devices, Sunnyvale, CA, USA) controlled by a pClamp data acquisition system (Axon Instruments, Union City, CA, USA). Whole-cell currents from oocytes were recorded from 1 to 3 days after injection. […]

[2] = molecular target: T1, Shaker IR; test: Two-electrode voltage-clamp, X. laevis oocytes expressing Shaker IR; format: cell-based, insect; details: mean ± standard error
Protocol: Stage V–VI of X. laevis oocytes were harvested by partial ovariectomy under anesthesia (3-aminobenzoic acid ethyl ester methanesulfonate salt, 0.5 g/L from Sigma-Aldrich Co., Saint Louis, MO, USA). The oocytes were defolliculated for 2 h by treatment with 2 mg/mL collagenase (Sigma-Aldrich Co., Saint Louis, MO, USA) in Ca^2+ free ND96 solution (in mM: 96 NaCl; 2 KCl; 1 MgCl2; 5 HEPES adjusted pH 7.4). For the expression of KV channels (KV1.1–KV1.6, KV2.1, KV3.1, KV4.2, KV4.3, hERG and the insect channel Shaker IR), the linearized plasmids were transcribed using the T7 or SP6 mMessage-mMachine transcription kit (Ambion, Austin, TX, USA). Oocytes were injected with 50 nL of cRNA at a concentration of 1 ng/nL using a microinjector (Drummond Scientific, Broomall, PA, USA). The oocytes were maintained in a ND96 solution (in mM: 96 NaCl, 2 KCl, 1.8 CaCl2, 2 MgCl2 and 5 HEPES; adjusted pH 7.4), supplemented with 50 µg/mL gentamicin sulfate.
Two-electrode voltage-clamp recordings were performed at room temperature (18–22 °C) using a Geneclamp 500 amplifier (Molecular Devices, Sunnyvale, CA, USA) controlled by a pClamp data acquisition system (Axon Instruments, Union City, CA, USA). Whole-cell currents from oocytes were recorded from 1 to 3 days after injection. Bath solution was the same ND96 solution described above. Voltage and current electrodes were filled with 3 M KCl. Resistances of both electrodes were kept between 0.8 and 1.0 ΩM. The elicited currents were filtered at 500 Hz using a four-pole lowpass Bessel filter. Leak subtraction was performed using a −P/4 protocol. KV1.1–KV1.6 and Shaker IR currents were evoked by 500 ms depolarizations to 0 mV, followed by a 500 ms pulse to −50 mV, from a holding potential of −90 mV. Current traces of hERG channels were elicited by applying a +40 mV prepulse for 2 s, followed by a step to −120 mV for 2 s. KV3.1, KV 4.2 and KV4.3 currents were elicited by 500 ms pulses to +20 mV from a holding potential of −90 mV. To assess the concentration-response relationships, data were fitted with the Hill equation: y = 100/[1 + (EC50/[toxin])h] (1) where y is the amplitude of the toxin-induced effect, EC50 is the toxin concentration at half maximal efficacy, [toxin] is the toxin concentration and h is the Hill coefficient. In order to investigate the current-voltage relationship, current traces were evoked by 10 mV depolarization steps from a holding potential of −90 mV. […]
Comparison of two sample means was made using a paired Student’s t test (p < 0.05). […] All data were analyzed using Clampfit 10.3 (Molecular Devices, Sunnyvale, CA, USA) and Origin 7.5 software (Origin Lab., Northampton, MA, USA).

T1 sequence (P08510 with tags, fused parts or gaps DEL6-46): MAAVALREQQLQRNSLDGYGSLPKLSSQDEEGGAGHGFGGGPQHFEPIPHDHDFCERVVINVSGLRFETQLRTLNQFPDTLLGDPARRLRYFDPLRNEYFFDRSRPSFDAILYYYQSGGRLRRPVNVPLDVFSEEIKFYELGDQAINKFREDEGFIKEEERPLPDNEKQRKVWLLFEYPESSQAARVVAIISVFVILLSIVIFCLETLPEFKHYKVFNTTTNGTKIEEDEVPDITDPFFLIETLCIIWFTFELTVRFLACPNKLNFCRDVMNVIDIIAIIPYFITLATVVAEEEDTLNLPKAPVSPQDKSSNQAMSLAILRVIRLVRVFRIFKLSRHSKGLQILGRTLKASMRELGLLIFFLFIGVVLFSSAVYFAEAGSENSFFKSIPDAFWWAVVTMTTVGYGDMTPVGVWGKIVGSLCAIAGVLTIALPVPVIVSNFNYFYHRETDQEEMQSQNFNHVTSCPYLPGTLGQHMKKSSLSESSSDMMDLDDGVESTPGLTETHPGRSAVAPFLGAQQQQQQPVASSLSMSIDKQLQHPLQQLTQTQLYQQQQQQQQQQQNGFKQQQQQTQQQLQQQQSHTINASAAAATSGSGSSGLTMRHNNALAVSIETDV

CC(C)C[C@@H]1NC(=O)[C@H](CCCCN)NC(=O)[C@H](C)NC(=O)[C@H](Cc2c[nH]cn2)NC(=O)[C@H](CCC(N)=O)NC(=O)[C@@H]2CSSC[C@@H]3NC(=O)[C@H](CC(N)=O)NC(=O)[C@H](C)NC(=O)[C@H](CCCNC(=N)N)NC(=O)[C@H](Cc4ccc(O)cc4)NC(=O)[C@H](CCCCN)NC(=O)[C@H](CCC(N)=O)NC(=O)[C@H](CO)NC(=O)[C@H](CC(N)=O)NC(=O)[C@H](CCCCN)NC(=O)[C@H](CSSC[C@H](NC(=O)[C@H]([C@@H](C)O)NC(=O)[C@H](CCCCN)NC(=O)[C@H](C)NC3=O)C(=O)NCC(=O)N3CCC[C@H]3C(=O)N[C@H](C(=O)O)CSSC[C@H](NC(=O)[C@H](C)N)C(=O)N[C@@H](CCCCN)C(=O)N[C@@H](CC(=O)O)C(=O)NCC(=O)N[C@@H](Cc3ccccc3)C(=O)N3CCC[C@H]3C(=O)N[C@@H]([C@@H](C)O)C(=O)N[C@@H](C)C(=O)N[C@@H]([C@@H](C)O)C(=O)N2)NC(=O)[C@H](CC(N)=O)NC(=O)CNC(=O)[C@H](C(C)C)NC1=O [BcsTx2] (H-ACKDGFPTATCQHAKLVGNCKNSQKYRANCAKTCGPC-OH; disulfide 2-37, 11-30, 20-34; C-terminus assumed)
reversibility of blockage upon washout (in words) ([1]; Shaker IR, BcsTx1 500 nM, BcsTx2 3000 nM, washout): reversible, and a complete recovery was observed after washout; also recorded: binding was reversible upon washout
onset of blockage (in words) ([1]; Shaker IR, time course, BcsTx1 500 nM, BcsTx2 3000 nM): Blockage occurred rapidly
voltage dependence of blockage (in words) ([1]; Shaker IR, −10 mV to 50 mV, BcsTx1 500 nM, BcsTx2 50 nM): non-dependence of voltage for the blockage; also recorded: no difference was observed in the degree of BcsTx1- and BcsTx2-induced blockage
V1/2 of activation, Shaker IR ([1]; in presence of 50 nM toxin, control 18.49 ± 1.49 mV, Boltzmann fit): 23.88 ± 1.57 mV
inhibition at 3 µM ([2]; 3 µM, n ≥ 3, read-out: inhibition of Shaker IR current): 94%
IC50 ([2]; TEVC, 18–22 °C, ND96 pH 7.4, 500 ms depolarizations to 0 mV from −90 mV, Hill fit, n ≥ 3): 49.1 ± 3.44 nM
